Assay results published in patent US20200129583A1, “COMPOSITION FOR TREATING ACUTE URINARY RETENTION” (ANTEV LIMITED, priority 2018, published 2020).

Key:
[1] = tested on: male patients suffering from BPH; assay: International Prostate Symptom Score (I-PSS) in phase II placebo-controlled study; type: in vivo, human
Protocol: (§1) A phase II randomised, double blind, placebo-controlled, multi-centre, multi national study was conducted in order to investigate the use of an Teverelix TFA formulation in the composition according to the invention. In said study the International Prostate Symptom Score (I-PSS), the prostate volume, the urinary flow rate and the testosterone level in males suffering from BPH were evaluated.
(§2) The Teverelix TFA formulation was reconstituted as follows. 0.8 ml 5% mannitol was added to 60 mg of the LHRH antagonist Teverelix trifluoroacetate. The mixture was stirred using vortex during one minute providing a dosage formulation of Teverelix TFA as a flowing milky pearly microcrystalline aqueous suspension. The suspension is made of microcrystals of about 10 μm length. Corresponding placebo formulations, without Teverelix TFA, were also prepared
(§3) Formulation A: 60 mg Teverelix TFA in 0.8 ml 5% mannitol
(§4) Two single injections of Formulation A and Formulation A-placebo was administered s.c. at an interval of 48 hours to 81 male patients (41 on A and 40 on A-placebo) suffering from BPH.
The International Prostate Symptom Score (I-PSS) is based on the answers to seven questions concerning urinary symptoms and one question concerning quality of life. Each question concerning urinary symptoms allows the patient to choose one out of six answers indicating increasing severity of the particular symptom. The answers are assigned points from 0 to 5. The total score can therefore range from 0 to 35 (asymptomatic to very symptomatic).

[2] = tested on: male patients suffering from BPH; assay: Prostate volume in phase II placebo-controlled study; type: in vivo, human; conditions: two s.c. injections of 60 mg at an interval of 48 hours
Protocol: as §1, §2, §3, §4

[3] = tested on: male patients suffering from BPH; assay: Urinary flow rate (Qmax) in phase II placebo-controlled study; type: in vivo, human; conditions: two s.c. injections of 60 mg at an interval of 48 hours
Protocol: as §1, §2, §3, §4

[4] = tested on: male patients suffering from BPH; assay: Serum testosterone level in phase II placebo-controlled study; type: in vivo, human; conditions: two s.c. injections of 60 mg at an interval of 48 hours; FIG. 4
Protocol: as §1, §2, §3, §4

[5] = tested on: male patients suffering from BPH; assay: Side effects with the use of Teverelix TFA; parameters: species or system human; conditions: in vivo
Protocol: as §1, §4

In the case of “N-Ac-d-Nal^1, d-pCl-Phe^2, d-Pal^3, d-(Hci)^6, Lys(iPr)^8, d-Ala^10 trifluoroacetate [Teverelix TFA]”, the IPSS reduction ([1]; at 2 weeks) is reported as 12.6%, the IPSS reduction ([1]; at 16 weeks) is reported as 33.9% and the “improvement in quality of life score (QoL)” value ([1]; at 16 weeks) is reported as 32.8%. The “time to improvement of symptoms (I-PSS)” value ([1]; two s.c. injections of 60 mg at an interval of 48 hours) was “within two weeks”, the “improvement on I-PSS” value ([1]; two s.c. injections of 60 mg at an interval of 48 hours, 16-week study, FIG. 1) was 39.9% and the “time to prostate volume reduction after initiating therapy” value [2] was “within four weeks”. For the same substance, the prostate volume decrease ([2]; FIG. 2) was 11.5%, the “time to significant increase in the flow rate” value [3] was “within the first two weeks” and the “increase in maximum urinary flow rate (Qmax)” value ([3]; at 16 weeks) was 43%. The “reduction in the testosterone level” value [4] was “immediate reduction”, the “time for testosterone level to return to baseline levels” value [4] was “within eight weeks” and the serious side effects [5] was “no serious side effects”.
